Measured values taken from patent publication US4007282A, “Lowering lipid and sugar levels in the blood with a bis(4-hydroxyphenyl)alkanoic acid or ester thereof” (Hoechst Aktiengesellschaft, priority 1972, dated 1977).
Like-named read-outs stand apart in the source and are kept apart here.

Tests used:
[1] = test system: normolipemic rats; experiment: Reduction of serum lipid values in normolipemic rats (8 days oral); format: in vivo, rat; conditions: 8 doses, male rats; for serum cholesterol, change in percentage (A: referred to the initial value) / serum triglyceride, change in percentage (A: referred to the initial value): column A; for serum cholesterol, change in percentage (B: referred to the untreated control group) / serum triglyceride, change in percentage (B: referred to the untreated control group): column B
Protocol: 1. Male rats having a normal serum lipid content were treated for eight days with different daily doses mentioned in Table 1. The values given in that Table stand for a change in the serum concentrations of certain lipid classes. The doses administered per os by means of an esophageal sound were 100, 30 and 10 mg/kg/day. Generally, prior to and after the treatment, blood samples were taken and the concentration of cholesterol in the serum was determined according to the method of Lauber and Richterich and that of triglycerides according to the method of Eggstein and Kreutz. In the examples of the following Table 1, the changes in the serum lipid values due to the treatment with the substances of the invention are defined as follows:
a. The changes in percent in the final value of the treated group, referred to the initial value of the treated group, the initial value being 100 percent, and
b. the change in the final value of the treated group, referred to the final value of an accompanying untreated control group, the untreated control group's value being defined as 100 percent. Thus, the value given in columns A is the change in percentage referred to the initial value, whereas the value given in columns B is the change in percentage of the treated group, referred to the untreated control group.

[2] = test system: dietetic-medicamentous hyperlipemia of male rats; experiment: Action on the dietetic-medicamentous hyperlipemia of male rats; format: in vivo; conditions: Rattus norvegicus, po, 192 h, 100 mg/kg/day p.o., 8 days, male rats on cholesterol diet
Source text: All the animals were fed with a diet food containing 2% of cholesterol, 2% of sodium cholate, 0.3% of methyl-thiouracil, 20% of coco fat and 44% of cane sugar. The serum lipid concentration of the animals treated with the compounds of the invention was compared to that of an untreated control group on the same diet, which diet causes the serum cholesteral concentration to rise within 1 week to about 10 times the initial value, that of the serum triglycerides to 3 times and that of the phospho-lipids in the serum to 4 times the initial value. The lipid phosphorus was determined according to the method of Messrs. Boehringer Mannheim W. Germany. At the same time as the diet was offered, the compounds of the invention were administered once a day to groups of rats, each containing 10 animals, over a period of 8 days by means of an esophageal sound. The change in percentage in the serum lipid concentration as compared to the control group (diet without active substance) is indicated in Table 2.

[3] = test system: hypertriglyceridemia induced by carbohydrates in male rats; experiment: Action on the hypertriglyceridemia induced by carbohydrates (fructose) in male rats; format: in vivo; conditions: Rattus norvegicus, 72 h, 3-day oral pre-treatment, vs untreated control, read-out: Change in percentage of hypertriglyceridemia induced by carbohydrates
[4] = test system: rats that had been fed fructose doses; experiment: Hypoglycemic activity: lowering of the blood sugar level in rats fed fructose doses; format: in vivo, rat; conditions: 100 mg/kg once a day over 3 days, 24 hours after last administration, vs placebo control group
Protocol: The hypoglycemic activity of some bis(4-hydroxy-phenyl) alkanoic acid derivatives of formulae I and II could be established by administering once a day, over 3 days, 100 mg of the active compound per kg of test animal to rats that had been fed fructose doses and by taking blood samples 24 hours after the last administration in order to determine the blood sugar level by means of an autoanalyzer.
The lowering of the blood sugar content indicated in following Table 4 refers to a control group treated with placebos (blank doses).

[5] = test system: mice; conditions: Table 3
[6] = in vivo; conditions: mouse, po
[7] = read-out: serum cholesterol, change in percentage as compared to the control group
[8] = read-out: serum lipid phosphorus, change in percentage as compared to the control group
[9] = read-out: serum triglyceride, change in percentage as compared to the control group

SMILES	serum cholesterol, change in percentage (A: referred to the initial value) ([1]; 10 mg/kg/day p.o.)	serum cholesterol, change in percentage (B: referred to the untreated control group) ([1]; 10 mg/kg/day p.o.)	serum triglyceride, change in percentage (B: referred to the untreated control group) ([1]; 10 mg/kg/day p.o.)	serum cholesterol, change in percentage (A: referred to the initial value) ([1]; 30 mg/kg/day p.o.)	serum triglyceride, change in percentage (A: referred to the initial value) ([1]; 30 mg/kg/day p.o.)	serum cholesterol, change in percentage (B: referred to the untreated control group) ([1]; 30 mg/kg/day p.o.)	serum triglyceride, change in percentage (B: referred to the untreated control group) ([1]; 30 mg/kg/day p.o.)	serum cholesterol, change in percentage (A: referred to the initial value) ([1]; 100 mg/kg/day p.o.)	serum triglyceride, change in percentage (A: referred to the initial value) ([1]; 100 mg/kg/day p.o.)	serum cholesterol, change in percentage (B: referred to the untreated control group) ([1]; 100 mg/kg/day p.o.)	serum triglyceride, change in percentage (B: referred to the untreated control group) ([1]; 100 mg/kg/day p.o.)	change in vivo at 100 mg/kg [2, 7]	change in vivo at 100 mg/kg [2, 8]	change in vivo at 100 mg/kg [2, 9]	change in vivo at 30 mg/kg [3]	change in vivo at 100 mg/kg [3]	lowering of the blood sugar level in per cent [4]	LD50 mice p.o. [5]	LD50 [6]
CC(C)(C)c1cc(C(C(=O)O)c2cc(C(C)(C)C)c(O)c(C(C)(C)C)c2)cc(C(C)(C)C)c1O [Example 3, Bis(4'-hydroxy-3',5'-di-tert.butyl-phenyl)ethanoic acid]	-24%	-21%	-29%	-32%	-39%	-22%	-46%	-61%	-70%	-52%	-60%	-23%	-26%	-44%	-36%	-37%	-15 per cent	6000 to 8000 mg/kg	6000 to 8000 mg/kg
CCCCOC(=O)CC(C)(c1ccc(O)c(C(C)(C)C)c1)c1ccc(O)c(C(C)(C)C)c1 [Example 7, 3,3-bis(4'-hydroxy-3'-tert.-butyl-phenyl)butanoic acid butyl ester]								-29%	-53%	-26%	-23%	-30%	-30%	-34%	-19%	-35%	-24 per cent	> 8000 mg/kg	> 8000 mg/kg
